According to patent publication US20230092163A1, “COMPOUNDS AND COMPOSITIONS FOR TREATING CONDITIONS ASSOCIATED WITH STING ACTIVITY” (IFM Due, Inc., priority 2019, published 2023):

Target: STING (Homo sapiens, UniProt Q86WV6, G230A/H232R/R293Q/R71H)
Test: STING reporter assay: THP1-Dual KO-IFNAR2 cells stimulated with 2′3′cGAMP, luciferase reporter activity
Format: cell-based
Details: 15 μM 2′3′cGAMP, 24h, class symbols
Experimental: STING pathway activation by the compounds described herein were measured using THP1-Dual™ cells (KO-IFNAR2).
THP1-Dual™ KO-IFNAR2 Cells (obtained from invivogen) were maintained in RPMI, 10% FCS, 5 ml P/S, 2 mM L-glut, 10 mM Hepes, and 1 mM sodium pyruvate. Compounds were spotted in empty 384 well tissue culture plates (Greiner 781182) by Echo for a final concentration of 0.0017-100 μM. Cells were plated into the TC plates at 40 μL per well, 2×10E6 cells/mL. For activation with STING ligand, 2′3′cGAMP (MW 718.38, obtained from Invivogen), was prepared in Optimem media.
The following solutions were prepared for each 1×384 plate: • Solution A: 2 mL Optimem with one of the following stimuli: • 60 uL of 10 mM 2′3′cGAMP ->150 μM stock • Solution B: 2 mL Optimem with 60 μL Lipofectamine 2000->Incubate 5 min at RT
2 mL of solution A and 2 ml Solution B was mixed and incubated for 20 min at room temperature (RT). 20 uL of transfection solution (A+B) was added on top of the plated cells, with a final 2′3′cGAMP concentration of 15 μM. The plates were then centrifuged immediately at 340 g for 1 minute, after which they were incubated at 37° C., 5% CO2, >98% humidity for 24h. Luciferase reporter activity was then measured. EC50 values were calculated by using standard methods known in the art.
Luciferase reporter assay: 10 μL of supernatant from the assay was transferred to white 384-plate with flat bottom and squared wells. One pouch of QUANTI-Luc™ Plus was dissolved in 25 mL of water. 100 μL of QLC Stabilizer per 25 mL of QUANTI-Luc™ Plus solution was added. 50 μL of QUANTI-Luc™ Plus/QLC solution per well is then added. Luminescence is measured on a Platereader (e.g., Spectramax I3X (Molecular Devices GF3637001)).
Luciferase reporter activity was then measured. EC50 values were calculated by using standard methods known in the art.

Chain of STING (Q86WV6 whole entry R71H/G230A/H232R/R293Q): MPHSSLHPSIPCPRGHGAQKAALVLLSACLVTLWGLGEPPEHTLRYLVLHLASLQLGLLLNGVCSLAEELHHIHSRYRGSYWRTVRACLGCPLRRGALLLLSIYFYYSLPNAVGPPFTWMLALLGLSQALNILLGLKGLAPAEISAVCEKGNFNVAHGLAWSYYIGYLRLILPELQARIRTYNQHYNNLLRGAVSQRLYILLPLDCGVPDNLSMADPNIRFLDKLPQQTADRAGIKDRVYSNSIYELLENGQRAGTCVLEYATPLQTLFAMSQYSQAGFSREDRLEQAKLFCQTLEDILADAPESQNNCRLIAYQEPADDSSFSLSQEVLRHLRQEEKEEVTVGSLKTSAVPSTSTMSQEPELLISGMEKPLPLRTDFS

| SMILES | EC50 [µM] |
| --- | --- |
| O=C(Nc1ccc(C2CC(F)(F)C2)c(F)c1)Nc1cc(Cl)c2cc[nH]c2c1 [Compound 548] | 0.04 to 0.2 |
| FC(F)(F)c1ccc2ccc(Nc3ccc4cc[nH]c4c3)nc2c1 [Compound 381] | 0.2 to 1 |
| COc1ccc2ccc(Nc3ccc4cc[nH]c4c3)nc2c1 [Compound 587, N-(1H-indol-6-yl)-7-methoxyquinolin-2-amine] | 1 to 5 |
| O=C(Nc1ccc2cc[nH]c2c1)N[C@@H]1C[C@H]1c1ccccc1 [Compound 214] | 1 to 5 |
| O=C(Nc1cccc(S(=O)(=O)N2CCCC2)c1)Nc1ccc2cc[nH]c2c1 [Compound 168] | 5 to 100 |
| O=C(NCCOc1ccccc1C(F)(F)F)Nc1ccc2cc[nH]c2c1 [Compound 524] | 1 to 5 |
| CNC(=O)OCCc1cc(NC(=O)Nc2ccc(C(F)(F)F)cc2)cc2[nH]ccc12 [Compound 512] | 1 to 5 |
| CC(=O)n1cc(C#N)c2ccc(NC(=O)Nc3ccc(C(F)(F)F)cc3)cc21 [Compound 529] | 1 to 5 |
| c1cc2c(c(Nc3ccc4cc[nH]c4c3)n1)CCCC2 [Compound 431, N-(1H-indol-6-yl)-5,6,7,8-tetrahydroisoquinolin-1-amine] | 5 to 100 |
| Cc1ncccc1-n1cc(C#N)c2ccc(NC(=O)Nc3ccc(C(F)(F)F)cc3)cc21 [Compound 527] | 5 to 100 |
| O=C(NCCc1ccc(Br)cc1)Nc1ccc2cc[nH]c2c1 [Compound 208] | 0.2 to 1 |
| O=C(NCc1cc(Cl)cc(C(F)(F)F)c1)Nc1ccc2c(F)c[nH]c2c1 [Compound 538] | 5 to 100 |
| O=C(Nc1ccc(S(=O)(=O)C(F)(F)F)cc1)Nc1ccc2cc[nH]c2c1 [Compound 200] | 0.2 to 1 |
| O=C(NCCc1ccccc1Cl)Nc1ccc2cc[nH]c2c1 [Compound 211] | 1 to 5 |
| C#Cc1ccc(NC(=O)Nc2ccc3cc[nH]c3c2)cc1 [Compound 152] | 0.2 to 1 |
| O=C(Nc1ccc(C(F)(F)F)cc1)Nc1ccc2[nH]cc(-c3cn[nH]c3)c2c1 [Compound 345] | 5 to 100 |
| O=C(Nc1cccc(C(F)(F)F)c1)Nc1ccc2c(F)c[nH]c2c1 [Compound 523] | 1 to 5 |
| O=C(NCc1cc(Cl)cc(C(F)(F)F)c1)Nc1cc(Cl)c2cc[nH]c2c1 [Compound 536] | 0.2 to 1 |
| Fc1ccc2nc(Nc3ccc4cc[nH]c4c3)ccc2c1C(F)(F)F [Compound 550] | 0.2 to 1 |
| COc1cc(NC(=O)Nc2ccc(C(F)(F)F)cc2)cc2[nH]ccc12 [Compound 504] | 0.2 to 1 |
| O=C(Nc1ccc2cc[nH]c2c1)NC1CCC2(CCCCC2)OC1 (stereo not shown) [Compound 243] | 5 to 100 |
| c1cnc2nc(Nc3ccc4cc[nH]c4c3)ccc2c1 [Compound 573, N-(1H-indol-6-yl)-1,8-naphthyridin-2-amine] | 5 to 100 |
| O=C(NCCOc1cccc(C(F)(F)F)c1)Nc1ccc2cc[nH]c2c1 [Compound 525] | 0.2 to 1 |
| Cc1ccc(CCNC(=O)Nc2ccc3cc[nH]c3c2)cc1C [Compound 186] | 1 to 5 |
| CCCCCNC(=O)Nc1ccc2cc[nH]c2c1 [Compound 188] | 1 to 5 |
| FC(F)(F)c1ccc2ccc(Nc3ccc4cc[nH]c4c3)cc2n1 [Compound 579] | 1 to 5 |
| CCCCc1ccc(NC(=O)Nc2ccc3[nH]ccc3c2)cc1 [Compound 378] | 1 to 5 |
| O=C(NCCC1CC1)Nc1ccc2cc[nH]c2c1 [Compound 162] | 5 to 100 |

Continued, values first:

| EC50 [µM] | SMILES |
| --- | --- |
| 0.2 to 1 | CCCCCCCCCCCCCCNC(=O)Nc1ccc2cc[nH]c2c1 [Compound 236] |
| 0.2 to 1 | FC(F)(F)c1cc(Nc2ccc3cc[nH]c3c2)nc(Nc2ccc3cc[nH]c3c2)c1 [Compound 570, N2,N6-bis(1H-indol-6-yl)-4-(trifluoromethyl)pyridine-2,6-diamine] |
| 0.2 to 1 | CC(=O)n1cc(F)c2ccc(NC(=O)Nc3ccc(C(F)(F)F)cc3)cc21 [Compound 534, 1-(1-acetyl-3-fluoro-1H-indol-6-yl)-3-(4-(trifluoromethyl)phenyl)urea] |
| 5 to 100 | FC(F)(F)c1cccc(Nc2ccc3cc[nH]c3c2)n1 [Compound 609] |
| 1 to 5 | O=C(Nc1ccc2cc[nH]c2c1)Nc1ccc2cc[nH]c2c1 [Compound 170] |
| 1 to 5 | Cc1nc(Nc2ccc3cc[nH]c3c2)ccc1OC(C)C [Compound 571, N-[6-methyl-5-(propan-2-yloxy)pyridin-2-yl]-1H-indol-6-amine] |
| 0.2 to 1 | O=C(NCc1cc(Cl)cc(C(F)(F)F)c1)Nc1ccc2cc[nH]c2c1 [Compound 205] |
| 1 to 5 | O=C(NCCc1cccc(Cl)c1)Nc1ccc2cc[nH]c2c1 [Compound 210] |
| 5 to 100 | Cc1nc(Nc2ccc3cc[nH]c3c2)ccc1Nc1ccc2cc[nH]c2c1 [Compound 583, N2,N5-bis(1H-indol-6-yl)-6-methylpyridine-2,5-diamine] |
| 0.2 to 1 | Cc1cc2ccc(Nc3ccc4cc[nH]c4c3)nc2cc1C(F)(F)F [Compound 552] |
| 0.2 to 1 | Cc1cc(Nc2ccc3cc[nH]c3c2)nc(C(F)(F)F)c1 [Compound 578] |
| 0.2 to 1 | COc1cc(NC(=O)NCc2cc(Cl)cc(C(F)(F)F)c2)cc2[nH]ccc12 [Compound 503] |
| 1 to 5 | CC(Cc1cccc(C(F)(F)F)c1)NC(=O)Nc1ccc2cc[nH]c2c1 (stereo not shown) [Compound 172] |
| 5 to 100 | CNC(=O)Cc1c[nH]c2cc(NC(=O)Nc3ccc(C(F)(F)F)cc3)ccc12 [Compound 540] |
| 5 to 100 | c1cc2ccc(Nc3ccc4c(n3)CCCC4)cc2[nH]1 [Compound 567, N-(1H-indol-6-yl)-5,6,7,8-tetrahydroquinolin-2-amine] |
| 5 to 100 | Cc1cc2cc[nH]c2cc1NC(=O)Nc1ccc(C(F)(F)F)cc1 [Compound 265] |

Same assay, conditions: 15 μM 2′3′cGAMP, 24h, numeric bounds

| SMILES | EC50 [µM] |
| --- | --- |
| O=C(Nc1ccc2[nH]ccc2c1)NC1CCc2ccc(C(F)(F)F)cc21 (stereo not shown) [Compound 317] | > 30 |
| Cc1ccc(CCNC(=O)Nc2ccc3[nH]ccc3c2)cc1C [Compound 356] | > 30 |
| O=C(NCc1ccc(F)c(F)c1)Nc1ccc2cc[nH]c2c1 [Compound 221] | > 30 |
| CC1(CNC(=O)Nc2ccc3[nH]ccc3c2)CCC(F)(F)CC1 [Compound 311] | > 30 |
| COc1nc(Nc2ccc3cc[nH]c3c2)ccc1C#N [Compound 603, 6-[(1H-indol-6-yl)amino]-2-methoxypyridine-3-carbonitrile] | > 30 |
| c1cc2ccc(Nc3ccc(C4CC4)cn3)cc2[nH]1 [Compound 411, N-(5-cyclopropylpyridin-2-yl)-1H-indol-6-amine] | > 30 |
| Fc1ccc2ccc(Nc3ccc4cc[nH]c4c3)nc2c1 [Compound 559, 7-fluoro-N-(1H-indol-6-yl)quinolin-2-amine] | > 30 |
| Cc1ccccc1NC(=O)Nc1ccc2[nH]ccc2c1 [Compound 365] | > 30 |
| c1cc2ccnc(Nc3ccc4cc[nH]c4c3)c2cn1 [Compound 415, N-(1H-indol-6-yl)-2,7-naphthyridin-1-amine] | > 30 |
| CCc1ccc(NC(=O)Nc2ccc3c(NC(=O)Nc4ccc(CC)cc4)c[nH]c3c2)cc1 [Compound 261] | > 100 |
| O=C(Nc1ccc2[nH]ccc2c1)N[C@@H]1C[C@H]1c1ccccc1 [Compound 326] | > 30 |
| CC(C)(C)n1cc(NC(=O)Nc2ccc3cc[nH]c3c2)cn1 [Compound 218] | > 30 |
| CC1(CNC(=O)Nc2ccc3cc[nH]c3c2)CCC(F)(F)CC1 [Compound 171] | > 30 |
| COc1ccc(Nc2ccc3cc[nH]c3c2)nc1C [Compound 599, N-(5-methoxy-6-methylpyridin-2-yl)-1H-indol-6-amine] | > 30 |
| CC[C@H](NC(=O)Nc1ccc2[nH]ccc2c1)c1ccccc1 [Compound 358] | > 30 |
| O=C(NCCc1c[nH]c2cc(OC(F)(F)F)ccc12)Nc1ccc2[nH]ccc2c1 [Compound 314] | > 30 |

Other lines, results leading:

| EC50 [µM] | SMILES |
| --- | --- |
| > 30 | COc1nc(Nc2ccc3cc[nH]c3c2)ccc1CO [Compound 561, {6-[(1H-indol-6-yl)amino]-2-methoxypyridin-3-yl}methanol] |
| > 30 | O=C(NCc1ccc(C(F)(F)F)c(Cl)c1)Nc1ccc2[nH]ccc2c1 [Compound 319] |
| > 30 | CC(=O)c1ccc2ccc(Nc3ccc4cc[nH]c4c3)nc2c1 [Compound 575, 1-{2-[(1H-indol-6-yl)amino]quinolin-7-yl}ethan-1-one] |
| > 30 | c1cc2nccnc2c(Nc2ccc3cc[nH]c3c2)n1 [Compound 404, N-(1H-indol-6-yl)pyrido[3,4-b]pyrazin-5-amine] |
| > 30 | Cc1nc(Nc2ccc3cc[nH]c3c2)ccc1Br [Compound 399, N-(5-bromo-6-methylpyridin-2-yl)-1H-indol-6-amine] |
| > 30 | O=C(Nc1ccc(Cl)c(F)c1)Nc1ccc2[nH]ccc2c1 [Compound 341] |
| > 30 | Cc1nc(Nc2ccc3cc[nH]c3c2)ccc1F [Compound 584, N-(5-fluoro-6-methylpyridin-2-yl)-1H-indol-6-amine] |
